Test results published in article PMC12888861, “Antibacterial activity of enmetazobactam against Acinetobacter spp.: a molecular dissection of mechanism of action and resistance determinants” (Antimicrobial Agents and Chemotherapy, 2025).
Where two headings read alike, the source gives them in different places.

Key:
[1] = test system: carbapenem-resistant A. baumannii (CRAB) isolates (n = 67); test: MIC, broth microdilution (EUCAST), carbapenem-resistant A. baumannii isolates; format: cell-based, Acinetobacter baumannii; conditions: for MIC: Acinetobacter baumannii
Excerpt: The bacterial strains used in this study comprised 208 clinical isolates from the Spanish National Acinetobacter spp. 2020 Multicenter Collection, which was previously characterized in detail by our research group, including whole-genome sequencing, phylogenetics studies, clonal dynamics, and resistance mechanisms ([2], [29]). Additionally, a collection of A. baumannii ATCC 17978 transformants coding the blaOXA-23, blaOXA-24/40, blaOXA-51, blaOXA-58, blaOXA-143, and blaOXA-201 genes, previously constructed and described by our group ([30]), was used to determine the activity of enmetazobactam against strains carrying the main CHDLs of A. baumannii.
The antimicrobial susceptibility of the 208 Acinetobacter spp. isolates was assessed using the broth microdilution method, as described in the European Committee on Antimicrobial Susceptibility Testing (EUCAST) v.15 guidelines (http://www.eucast.org/clinical_breakpoints). […] MICs for enmetazobactam alone were assessed as well. […] Subsequently, MIC testing was also conducted with a collection of A. baumannii ATCC 17978 transformants expressing clinically relevant OXA-like carbapenemase genes.
The A. baumannii ATCC 19606 strain was used as the reference strain in all susceptibility experiments, in duplicate assays. Antibiotics were purchased from Sigma-Aldrich, except enmetazobactam and durlobactam, which were obtained from Advanz Pharma and MedChemExpress, respectively.

PBP1b = PBP1b (Acinetobacter baumannii, UniProt A0ABX6CHI7); test: PBP-binding assay, Bocillin FL competition, membrane preparations; conditions: A. baumannii ATCC 19606, read-out: IC50 (binding affinity) PBP1b (converted)
Method: (§1) The possible involvement of A. baumannii PBPs as enmetazobactam targets was evaluated. […] The PBP-binding IC50 was determined in membrane preparations from three independent experiments, following previously described protocols ([13]).
(§2) Briefly, A. baumannii cultures were grown in Mueller-Hinton broth at 37°C with shaking at 180 rpm, and 400 mL were collected in late log phase (OD₆₀₀nm= 1), washed, and resuspended in 20 mM KH₂PO₄ and 140 mM NaCl (pH 7.5). After sonication, bacterial membranes were isolated by ultracentrifugation (150,000 g, 30 min). […] The Bocillin FL signal is inversely proportional to the binding capacity of the compounds tested to PBPs ([35]). The PBPs were separated by SDS-PAGE (Bio-Rad) and visualized with Odyssey M Imager (LI-COR). The IC₅₀ values were calculated using Empiria Studio software (LI-COR). The binding affinity was determined by comparing the change of the fluorescence in the presence or absence of the tested sulfones.

PBP1a = PBP1a (Acinetobacter baumannii, UniProt A0ABX6CK30); test: as above; conditions: A. baumannii ATCC 19606, read-out: IC50 (binding affinity) PBP1a
Chain of PBP1a (A0ABX6CK30 entry or part of it): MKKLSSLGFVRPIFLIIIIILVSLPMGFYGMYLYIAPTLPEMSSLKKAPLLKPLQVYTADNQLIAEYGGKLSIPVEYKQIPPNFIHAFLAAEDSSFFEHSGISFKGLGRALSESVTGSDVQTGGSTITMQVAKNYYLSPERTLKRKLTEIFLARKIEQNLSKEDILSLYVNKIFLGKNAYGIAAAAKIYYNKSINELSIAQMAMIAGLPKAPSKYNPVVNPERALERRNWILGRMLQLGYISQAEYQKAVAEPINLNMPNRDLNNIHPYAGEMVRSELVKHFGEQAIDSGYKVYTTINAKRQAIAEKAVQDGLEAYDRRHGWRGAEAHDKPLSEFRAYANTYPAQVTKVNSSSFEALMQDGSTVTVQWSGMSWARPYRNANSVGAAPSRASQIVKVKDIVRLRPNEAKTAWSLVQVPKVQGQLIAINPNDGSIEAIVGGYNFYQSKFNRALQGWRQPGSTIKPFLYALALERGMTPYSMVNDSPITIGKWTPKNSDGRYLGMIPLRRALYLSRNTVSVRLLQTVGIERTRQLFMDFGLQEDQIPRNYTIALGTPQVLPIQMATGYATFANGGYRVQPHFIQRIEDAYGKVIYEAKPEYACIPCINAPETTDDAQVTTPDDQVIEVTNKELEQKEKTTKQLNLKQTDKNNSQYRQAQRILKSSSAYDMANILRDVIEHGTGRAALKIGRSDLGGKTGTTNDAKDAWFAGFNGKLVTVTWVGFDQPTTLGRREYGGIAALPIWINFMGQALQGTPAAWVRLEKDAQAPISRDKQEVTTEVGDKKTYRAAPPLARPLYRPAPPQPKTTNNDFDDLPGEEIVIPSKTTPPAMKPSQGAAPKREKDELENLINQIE
Method: as §1, §2

PBP2 = target: T1, PBP2 (Acinetobacter baumannii, UniProt D0C8Z9); test: as above; conditions: membrane preparations, A. baumannii ATCC 19606, read-out: IC50 (binding affinity) PBP2 (converted)
T1 construct: endogenous in cells; host or cells: A. baumannii ATCC 19606 membrane fraction
T1 sequence (D0C8Z9 whole entry): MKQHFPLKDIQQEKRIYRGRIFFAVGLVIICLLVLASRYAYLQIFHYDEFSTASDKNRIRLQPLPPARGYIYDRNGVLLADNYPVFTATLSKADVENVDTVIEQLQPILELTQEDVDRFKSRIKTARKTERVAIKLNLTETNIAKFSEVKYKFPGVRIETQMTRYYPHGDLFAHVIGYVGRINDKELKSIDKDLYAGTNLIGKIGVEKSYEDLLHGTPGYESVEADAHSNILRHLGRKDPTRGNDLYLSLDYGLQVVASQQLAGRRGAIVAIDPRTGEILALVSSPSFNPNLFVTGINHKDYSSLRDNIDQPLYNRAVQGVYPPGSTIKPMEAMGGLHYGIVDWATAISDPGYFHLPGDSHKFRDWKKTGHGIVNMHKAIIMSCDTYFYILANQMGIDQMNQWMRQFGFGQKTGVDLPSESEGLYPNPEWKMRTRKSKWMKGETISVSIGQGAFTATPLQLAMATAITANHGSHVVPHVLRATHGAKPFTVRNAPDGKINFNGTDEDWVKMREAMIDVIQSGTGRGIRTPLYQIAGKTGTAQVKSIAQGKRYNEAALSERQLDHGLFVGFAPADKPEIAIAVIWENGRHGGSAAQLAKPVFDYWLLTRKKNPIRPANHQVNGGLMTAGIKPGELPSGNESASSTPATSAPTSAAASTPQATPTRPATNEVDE
Method: as §1, §2

PBP3 = PBP3 (Acinetobacter baumannii, UniProt A0ABX6CK25); test: as above
Chain of PBP3 (A0ABX6CK25 entry or part of it): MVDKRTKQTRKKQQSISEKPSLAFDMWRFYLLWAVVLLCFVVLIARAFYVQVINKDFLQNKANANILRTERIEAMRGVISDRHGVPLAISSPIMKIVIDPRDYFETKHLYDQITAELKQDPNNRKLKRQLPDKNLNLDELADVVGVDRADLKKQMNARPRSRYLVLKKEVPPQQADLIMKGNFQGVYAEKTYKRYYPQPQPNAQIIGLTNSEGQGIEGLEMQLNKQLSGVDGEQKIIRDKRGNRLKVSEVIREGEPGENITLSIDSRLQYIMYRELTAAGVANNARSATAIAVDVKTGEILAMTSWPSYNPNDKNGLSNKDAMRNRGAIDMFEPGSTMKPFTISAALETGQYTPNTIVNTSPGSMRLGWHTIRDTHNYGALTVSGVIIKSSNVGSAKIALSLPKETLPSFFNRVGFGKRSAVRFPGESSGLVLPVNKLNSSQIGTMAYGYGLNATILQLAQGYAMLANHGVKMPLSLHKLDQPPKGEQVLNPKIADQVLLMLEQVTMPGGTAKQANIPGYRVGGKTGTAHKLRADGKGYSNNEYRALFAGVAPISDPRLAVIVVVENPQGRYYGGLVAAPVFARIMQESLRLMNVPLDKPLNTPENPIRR
Method: as §1, §2

[2] = CHDLs-producing A. baumannii isolates (n = 67), durlobactam series, DUR fixed 4 mg/L in combinations

C[n+]1ccn(C[C@@]2(C)[C@H](C(=O)[O-])N3C(=O)C[C@H]3S2(=O)=O)n1 [enmetazobactam]
MIC ([1]; isolate Ab186, ST 2, ADC-30, OXA-66, OXA-23, DUR fixed at 4 mg/L in combinations): 32 µg/mL
MIC ([1]; isolate Ab186, ST 2, ADC-30, OXA-66, OXA-23, ETZ fixed 8 mg/L in combinations): 32 µg/mL
MIC ([1]; isolate Ab191, ST 2, ADC-30, OXA-66, OXA-23, DUR fixed at 4 mg/L in combinations): 64 µg/mL
MIC ([1]; isolate Ab191, ST 2, ADC-30, OXA-66, OXA-23, ETZ fixed 8 mg/L in combinations): 64 µg/mL
MIC ([1]; isolate Ab192, ST 2, ADC-30, OXA-66, OXA-23, DUR fixed at 4 mg/L in combinations): 32 µg/mL
MIC ([1]; isolate Ab192, ST 2, ADC-30, OXA-66, OXA-23, ETZ fixed 8 mg/L in combinations): 64 µg/mL
MIC ([1]; isolate Ab194, ST 2, ADC-30, OXA-66, OXA-23, DUR fixed at 4 mg/L in combinations): 64 µg/mL
MIC ([1]; isolate Ab194, ST 2, ADC-30, OXA-66, OXA-23, ETZ fixed 8 mg/L in combinations): 64 µg/mL
MIC ([1]; isolate Ab199, ST 2, ADC-30, OXA-66, OXA-23, DUR fixed at 4 mg/L in combinations): 32 µg/mL
MIC ([1]; isolate Ab199, ST 2, ADC-30, OXA-66, OXA-23, ETZ fixed 8 mg/L in combinations): 32 µg/mL
MIC ([1]; isolate Ab201, ST 2, ADC-30, OXA-66, OXA-23, DUR fixed at 4 mg/L in combinations): 64 µg/mL
MIC ([1]; isolate Ab201, ST 2, ADC-30, OXA-66, OXA-23, ETZ fixed 8 mg/L in combinations): 64 µg/mL
MIC ([1]; isolate Ab204, ST 2, ADC-30, OXA-66, OXA-23, DUR fixed at 4 mg/L in combinations): 32 µg/mL
MIC ([1]; isolate Ab204, ST 2, ADC-30, OXA-66, OXA-23, ETZ fixed 8 mg/L in combinations): 32 µg/mL
MIC50 [1, 2]: 64 µg/mL
MIC90 [1, 2]: 64 µg/mL
MIC distribution 0.12 ([1]; cumulative % of CHDLs-producing A. baumannii isolates (n = 67) at MIC 0.12 mg/L, DUR fixed 4 mg/L in combinations): 0.0%
MIC distribution 0.25 ([1]; cumulative % of CHDLs-producing A. baumannii isolates (n = 67) at MIC 0.25 mg/L, DUR fixed 4 mg/L in combinations): 0.0%
MIC distribution 0.5 ([1]; cumulative % of CHDLs-producing A. baumannii isolates (n = 67) at MIC 0.5 mg/L, DUR fixed 4 mg/L in combinations): 0.0%
MIC distribution 1 ([1]; cumulative % of CHDLs-producing A. baumannii isolates (n = 67) at MIC 1 mg/L, DUR fixed 4 mg/L in combinations): 0.0%
MIC distribution 2 ([1]; cumulative % of CHDLs-producing A. baumannii isolates (n = 67) at MIC 2 mg/L, DUR fixed 4 mg/L in combinations): 0.0%
MIC distribution 4 ([1]; cumulative % of CHDLs-producing A. baumannii isolates (n = 67) at MIC 4 mg/L, DUR fixed 4 mg/L in combinations): 10.4%
MIC distribution 8 ([1]; cumulative % of CHDLs-producing A. baumannii isolates (n = 67) at MIC 8 mg/L, DUR fixed 4 mg/L in combinations): 22.4%
MIC distribution 16 ([1]; cumulative % of CHDLs-producing A. baumannii isolates (n = 67) at MIC 16 mg/L, DUR fixed 4 mg/L in combinations): 25.4%
MIC distribution 32 ([1]; cumulative % of CHDLs-producing A. baumannii isolates (n = 67) at MIC 32 mg/L, DUR fixed 4 mg/L in combinations): 46.3%
MIC distribution ≤0.06 ([1]; cumulative % of CHDLs-producing A. baumannii isolates (n = 67) at MIC ≤0.06 mg/L, DUR fixed 4 mg/L in combinations): 0.0%
MIC distribution ≥64 ([1]; cumulative % of CHDLs-producing A. baumannii isolates (n = 67) at MIC ≥64 mg/L, DUR fixed 4 mg/L in combinations): 100%
MIC distribution 0.12 ([1]; cumulative share of CRAB isolates (n = 67) at MIC 0.12 mg/L, ETZ fixed 8 mg/L in combinations): 0
MIC distribution 0.25 ([1]; cumulative share of CRAB isolates (n = 67) at MIC 0.25 mg/L, ETZ fixed 8 mg/L in combinations): 0
MIC distribution 0.5 ([1]; cumulative share of CRAB isolates (n = 67) at MIC 0.5 mg/L, ETZ fixed 8 mg/L in combinations): 0
MIC distribution 1 ([1]; cumulative share of CRAB isolates (n = 67) at MIC 1 mg/L, ETZ fixed 8 mg/L in combinations): 0
MIC distribution 2 ([1]; cumulative share of CRAB isolates (n = 67) at MIC 2 mg/L, ETZ fixed 8 mg/L in combinations): 0
MIC distribution 4 ([1]; cumulative share of CRAB isolates (n = 67) at MIC 4 mg/L, ETZ fixed 8 mg/L in combinations): 10.4
MIC distribution 8 ([1]; cumulative share of CRAB isolates (n = 67) at MIC 8 mg/L, ETZ fixed 8 mg/L in combinations): 19.4
MIC distribution 16 ([1]; cumulative share of CRAB isolates (n = 67) at MIC 16 mg/L, ETZ fixed 8 mg/L in combinations): 25.4
MIC distribution 32 ([1]; cumulative share of CRAB isolates (n = 67) at MIC 32 mg/L, ETZ fixed 8 mg/L in combinations): 41.8
MIC distribution 64 ([1]; cumulative share of CRAB isolates (n = 67) at MIC 64 mg/L, ETZ fixed 8 mg/L in combinations): 100
MIC distribution ≤0.06 ([1]; cumulative share of CRAB isolates (n = 67) at MIC ≤0.06 mg/L, ETZ fixed 8 mg/L in combinations): 0
IC50 (PBP1b): > 204 µM
IC50 (PBP1a): > 204 µM
IC50 (PBP2): 11.5 µM
IC50 (PBP3; A. baumannii ATCC 19606, listed as Enmetazobactam, read-out: IC50 (binding affinity) PBP3 (converted)): 13.4 µM
IC50 (PBP3; A. baumannii ATCC 19606, read-out: IC50 (binding affinity) PBP3 (converted)): 13.5 µM
